In US12098148B2, “Therapeutic compounds” (C4X Discovery Limited, priority 2018, dated 2024):
pEC50, pIC50: −log10 of the molar value.

Key:
[1] = molecular target: human KEAP1 (N-term, residues 321-609) (Homo sapiens, UniProt Q14145); experiment: biochemical;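 further: fluorescence polarization competition assay of Kelch domain binding to NRF2, 12-point 1:3 dilution series from 10 µM, read after 1 h at room temperature, floor 10 nM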
[2] = test system: NQO1 mRNA in BEAS-2B cells; experiment: Beas2B NQO1 mRNA cell based assay; parameters: species or system human; settings: Homo sapiens, BEAS-2B, 24 h, 24 h compound treatment, increase in NQO1 mRNA vs vehicle (0.1% DMSO), read-out: EC50
Procedure, shortened: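 Relative NQO1 transcript level derived by ΔΔCT with human β-actin as internal control, using direct-lysate one-step RT-qPCR. Cells were BEAS-2B, plated overnight then treated with compound for 24 h.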

Sequence of human KEAP1 (N-term, residues 321-609) (Q14145 321-609): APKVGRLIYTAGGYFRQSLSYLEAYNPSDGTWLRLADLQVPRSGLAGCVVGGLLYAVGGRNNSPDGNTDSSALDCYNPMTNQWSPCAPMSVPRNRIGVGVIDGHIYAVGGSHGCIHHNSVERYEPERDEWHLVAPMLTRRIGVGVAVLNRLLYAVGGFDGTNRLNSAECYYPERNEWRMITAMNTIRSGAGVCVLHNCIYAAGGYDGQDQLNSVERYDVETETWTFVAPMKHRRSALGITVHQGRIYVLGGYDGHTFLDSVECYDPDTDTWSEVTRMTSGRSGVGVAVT

Structure (SMILES) | pIC50 [1] | pEC50 [2]
C[C@]1(C(=O)O)CCCC[C@H]1C(=O)N1CCc2c(Cl)ccc(OCc3nnn(C4CC4)c3C(F)F)c2[C@H]1CN1CCCC1=O [Example 134, (1S,2R)-2-((S)-5-chloro-8-((1-cyclopropyl-5-(difluoromethyl)-1H-1,2,3-triazol-4-yl)methoxy)-1-((2-oxopyrrolidin-1-yl)methyl)-1,2,3,4-tetrahydroisoquinoline-2-carbonyl)-1-methylcyclohexane-1-carboxylic acid] | 8.09 | 8.66
C[C@]1(C(=O)O)CCCC[C@H]1C(=O)N1CCc2c(Cl)ccc(OCc3cncnc3C(F)F)c2[C@H]1CN1CC2(CC2)CC1=O [Example 135, (1S,2R)-2-((S)-5-chloro-8-((4-(difluoromethyl)pyrimidin-5-yl)methoxy)-1-((6-oxo-5-azaspiro[2.4]heptan-5-yl)methyl)-1,2,3,4-tetrahydroisoquinoline-2-carbonyl)-1-methylcyclohexane-1-carboxylic acid] | 8.28 | 9.04
CC1(C)CC(COc2ccc(Cl)c3c2[C@@H](CN2CC4(CC4)CC2=O)N(C(=O)[C@@H]2CCCC[C@]2(C)C(=O)O)CC3)=NO1 [Example 136, (1S,2R)-2-((S)-5-chloro-8-((5,5-dimethyl-4,5-dihydroisoxazol-3-yl)methoxy)-1-((6-oxo-5-azaspiro[2.4]heptan-5-yl)methyl)-1,2,3,4-tetrahydroisoquinoline-2-carbonyl)-1-methylcyclohexane-1-carboxylic acid] | 7.66 | 5.77
Cc1conc1COc1ccc(Cl)c2c1[C@@H](CN1CCCC1=O)N(C(=O)[C@@H]1CCCC[C@]1(C)C(=O)O)CC2 [Example 137, (1S,2R)-2-((S)-5-chloro-8-((4-methylisoxazol-3-yl)methoxy)-1-((2-oxopyrrolidin-1-yl)methyl)-1,2,3,4-tetrahydroisoquinoline-2-carbonyl)-1-methylcyclohexane-1-carboxylic acid] | 8.20 | 8.17
C[C@]1(C(=O)O)CCCC[C@H]1C(=O)N1CCc2c(Cl)ccc(OCc3noc4c3CCCC4)c2[C@H]1CN1CCCC1=O [Example 138, (1S,2R)-2-((S)-5-chloro-1-((2-oxopyrrolidin-1-yl)methyl)-8-((4,5,6,7-tetrahydrobenzo[d]isoxazol-3-yl)methoxy)-1,2,3,4-tetrahydroisoquinoline-2-carbonyl)-1-methylcyclohexane-1-carboxylic acid] | 8.10 | 9.10
Cn1nnc(COc2ccc(Cl)c3c2[C@@H](CN2CC4(CC4)CC2=O)N(C(=O)[C@@H]2OCCC[C@@H]2C(=O)O)CC3)c1C(F)F [Example 140, (2R,3S)-2-((S)-5-chloro-8-((5-(difluoromethyl)-1-methyl-1H-1,2,3-triazol-4-yl)methoxy)-1-((6-oxo-5-azaspiro[2.4]heptan-5-yl)methyl)-1,2,3,4-tetrahydroisoquinoline-2-carbonyl)tetrahydro-2H-pyran-3-carboxylic acid] | 8.35 | 6.82
Cn1nnc(COc2ccc(Cl)c3c2[C@@H](CN2CCCC2=O)N(C(=O)[C@@H]2CC4CCC2(C(=O)O)CC4)CC3)c1C(F)F [Example 141, (R)-2-((S)-5-chloro-8-((5-(difluoromethyl)-1-methyl-1H-1,2,3-triazol-4-yl)methoxy)-1-((2-oxopyrrolidin-1-yl)methyl)-1,2,3,4-tetrahydroisoquinoline-2-carbonyl)bicyclo[2.2.2]octane-1-carboxylic acid] | 8.15 | 7.46
[2H]C1([2H])CC[C@](C)(C(=O)O)[C@H](C(=O)N2CCc3c(Cl)ccc(OCc4nnn(C)c4C(F)F)c3[C@H]2CN2CC3(CC3)CC2=O)C1 [Example 142, (1S,2R)-2-((S)-5-chloro-8-((5-(difluoromethyl)-1-methyl-1H-1,2,3-triazol-4-yl)methoxy)-1-((6-oxo-5-azaspiro[2.4]heptan-5-yl)methyl)-1,2,3,4-tetrahydroisoquinoline-2-carbonyl)-1-methylcyclohexane-1-carboxylic-4,4-d2 acid] | 8.30 | 9.68
Cc1c(COc2c(F)cc(Cl)c3c2[C@@H](CN2CC4(CC4)CC2=O)N(C(=O)[C@@H]2CCCC[C@]2(C)C(=O)O)CC3)nnn1C [Example 143, (1S,2R)-2-((S)-5-chloro-8-((1,5-dimethyl-1H-1,2,3-triazol-4-yl)methoxy)-7-fluoro-1-((6-oxo-5-azaspiro[2.4]heptan-5-yl)methyl)-1,2,3,4-tetrahydroisoquinoline-2-carbonyl)-1-methylcyclohexane-1-carboxylic acid] | 8.28 | 10.30
COCCn1nnc(COc2ccc(Cl)c3c2[C@@H](CN2CCCC2=O)N(C(=O)[C@@H]2CCCC[C@]2(C)C(=O)O)CC3)c1C(F)F [Example 145, (1S,2R)-2-((S)-5-chloro-8-((5-(difluoromethyl)-1-(2-methoxyethyl)-1H-1,2,3-triazol-4-yl)methoxy)-1-((2-oxopyrrolidin-1-yl)methyl)-1,2,3,4-tetrahydroisoquinoline-2-carbonyl)-1-methylcyclohexane-1-carboxylic acid] | 8.19 | 8.31
C[C@]1(C(=O)O)CCCC[C@H]1C(=O)N1CCc2c(Cl)cc(F)c(OCc3nnn4c3CCC4)c2[C@H]1CN1CC2(CC2)CC1=O [Example 146, (1S,2R)-2-((S)-5-chloro-8-((5,6-dihydro-4H-pyrrolo[1,2-c][1,2,3]triazol-3-yl)methoxy)-7-fluoro-1-((6-oxo-5-azaspiro[2.4]heptan-5-yl)methyl)-1,2,3,4-tetrahydroisoquinoline-2-carbonyl)-1-methylcyclohexane-1-carboxylic acid] | 8.24 | 9.64
Cn1nnc(COc2c(F)cc(Cl)c3c2[C@@H](CN2CCCC2=O)N(C(=O)[C@@H]2CCCC[C@]2(C)C(=O)O)CC3)c1C(F)F [Example 147, (1S,2R)-2-((S)-5-chloro-8-((5-(difluoromethyl)-1-methyl-1H-1,2,3-triazol-4-yl)methoxy)-7-fluoro-1-((2-oxopyrrolidin-1-yl)methyl)-1,2,3,4-tetrahydroisoquinoline-2-carbonyl)-1-methylcyclohexane-1-carboxylic acid] | 8.29 | 9.54
Cn1ccc(COc2ccc(Cl)c3c2[C@@H](CN2CC4(CC4)CC2=O)N(C(=O)[C@@H]2CCCC[C@]2(C)C(=O)O)CC3)cc1=O [Example 148, (1S,2R)-2-((S)-5-chloro-8-((1-methyl-2-oxo-1,2-dihydropyridin-4-yl)methoxy)-1-((6-oxo-5-azaspiro[2.4]heptan-5-yl)methyl)-1,2,3,4-tetrahydroisoquinoline-2-carbonyl)-1-methylcyclohexane-1-carboxylic acid] | 8.18 | 7.66
C[C@@H]1CC(=O)N(C[C@@H]2c3c(OCc4nnn(C)c4C(F)F)ccc(Cl)c3CCN2C(=O)[C@H]2CCCC[C@]2(C)C(=O)O)C1 [Example 149, (1S,2S)-2-((S)-5-chloro-8-((5-(difluoromethyl)-1-methyl-1H-1,2,3-triazol-4-yl)methoxy)-1-(((R)-4-methyl-2-oxopyrrolidin-1-yl)methyl)-1,2,3,4-tetrahydroisoquinoline-2-carbonyl)-1-methylcyclohexane-1-carboxylic acid] | 7.55 | 7.14
Cn1nnc(COc2ccc(Cl)c3c2[C@@H](CN2CC4(CC4)CC2=O)N(C(=O)[C@@H]2CCCC[C@]2(C)C(=O)O)CC3)c1C(F)(F)F [Example 150, (1S,2R)-2-((S)-5-chloro-8-((1-methyl-5-(trifluoromethyl)-1H-1,2,3-triazol-4-yl)methoxy)-1-((6-oxo-5-azaspiro [2.4]heptan-5-yl)methyl)-1,2,3,4-tetrahydroisoquinoline-2-carbonyl)-1-methylcyclohexane-1-carboxylic acid] | 8.30 | 9.01
Cn1nnc(COc2ccc(Cl)c3c2[C@@H](CN2CC(C)(C)CC2=O)N(C(=O)[C@@H]2CCCC[C@]2(C)C(=O)O)CC3)c1C(F)F [Example 152, (1S,2R)-2-((S)-5-chloro-8-((5-(difluoromethyl)-1-methyl-1H-1,2,3-triazol-4-yl)methoxy)-1-((4,4-dimethyl-2-oxopyrrolidin-1-yl)methyl)-1,2,3,4-tetrahydroisoquinoline-2-carbonyl)-1-methylcyclohexane-1-carboxylic acid] | 8.14 | 8.00
Cn1nnc(COc2ccc(Cl)c3c2[C@@H](CN2CC4(CC4)CC2=O)N(C(=O)[C@@H]2CCC[C@]2(C)C(=O)O)CC3)c1C(F)(F)F [Example 153, (1S,2R)-2-((S)-5-chloro-8-((1-methyl-5-(trifluoromethyl)-1H-1,2,3-triazol-4-yl)methoxy)-1-((6-oxo-5-azaspiro [2.4]heptan-5-yl)methyl)-1,2,3,4-tetrahydroisoquinoline-2-carbonyl)-1-methylcyclopentane-1-carboxylic acid] | 8.05 | 8.15
Cc1onc(COc2ccc(Cl)c3c2[C@@H](CN2CC4(CC4)CC2=O)N(C(=O)[C@@H]2CCCC[C@]2(C)C(=O)O)CC3)c1C(F)(F)F [Example 154, (1S,2R)-2-((S)-5-chloro-8-((5-methyl-4-(trifluoromethyl)isoxazol-3-yl)methoxy)-1-((6-oxo-5-azaspiro[2.4]heptan-5-yl)methyl)-1,2,3,4-tetrahydroisoquinoline-2-carbonyl)-1-methylcyclohexane-1-carboxylic acid] | 8.03 | 7.74
C[C@]1(C(=O)O)CCCC[C@H]1C(=O)N1CCc2c(Cl)ccc(OCc3nnn(CC(F)(F)F)c3C(F)F)c2[C@H]1CN1CCCC1=O [Example 155, (1S,2R)-2-((S)-5-chloro-8-((5-(difluoromethyl)-1-(2,2,2-trifluoroethyl)-1H-1,2,3-triazol-4-yl)methoxy)-1-((2-oxopyrrolidin-1-yl)methyl)-1,2,3,4-tetrahydroisoquinoline-2-carbonyl)-1-methylcyclohexane-1-carboxylic acid] | 7.80 | 8.32
